Measurements reported in patent US9198915B2, “Methods involving aldose reductase inhibitors” (The Board of Regents of The University of Texas System, priority 2007, dated 2015).

Key:
[1] = system: TNF-α, NO and PGE2 in aqueous humor; assay: EIU: TNF-α, NO and PGE2 in aqueous humor (ELISA kits); format: in vivo, rat; conditions: 6 and 24 h after EIU-induction
Method: Six to eight-weeks-old male Lewis rats weighing approximately 150-160 g were used in this study (n=6). All animals were kept in the UTMB's Animal Care Center. All the animal studies were conducted in compliance with the ARVO statement for the use of Animals in Ophthalmic and Vision Research. EIU was induced by a subcutaneous injection of Escherichia coli LPS (200 μg) dissolved in phosphate-buffered saline (PBS, pH 7.4). Rats in ART and ETU+ARI groups were injected intraperitoneally with AR inhibitor zopolrestat (25 mg/kg body weight) dissolved in dimethyl-sulfoxide (DMSO) 24 h before and immediately after LPS injection. Rats of control group received carrier (PBS+20% DMSO) injection.
The levels of TNF-α in the AqH (stored at −80° C.) were assessed with commercially available ELISA kit, according to the manufacturer's instructions. The total level of nitrate plus nitrite in the AqH was measured by using a total nitrite colorimetric assay ([…]) kit according to the manufacturer's instructions. PGE2 production was measured by enzyme immunoassay kit following the manufacturer's instructions.

SAEC [2] = assay: RW-induced apoptosis in SAEC (annexin V/PI flow cytometry); format: cell-based, human; conditions: zopolrestat 20 μM, RW 150 μg/ml, 18 h
Method: Small Airway Epithelial cells (SAEC) obtained from Cambrex Bio Science Walkersville, Inc. (Walkersville, Md.) contains normal human SAEC from distal airspace of donor. The cells were cultured according to the supplier's instructions at 37° C. in humidified atmosphere containing 95% air and 5% CO2 in small airway epithelial basal medium (SABM) with supplements containing 52 μg/ml bovine pituitary extract, 0.5 ng/ml human recombinant epidermal growth factor (EGF), 0.5 μg/ml epinephrine, 1 μg/ml hydrocortisone, 10 μg/ml transferrin, 5 μg/ml insulin, 0.1 ng/ml retinoic acid (RA), 6.5 ng/ml triiodothyronine, 50 μg/ml Gentamicin/Amphotericin-B (GA-1000), and 50 μg/ml fatty acid-free bovine serum albumin (BSA).
Approximately 2×10^5 SAEC/well were plated in 6-well plates in triplicate for each group. After 24 hours, the medium was replaced with serum-free SABM with or without zopolrestat (20 μM). The cells were induced by RW (150 μg/mL) and incubated for 18 h. Apoptotic cell death was examined using the annexin V-FITC/PI, (molecular probes, Invitrogen) according to the manufacturer's instructions. Twenty thousand events were acquired for each sample and analyzed by flow cytometry using the LYSIS II software (FACScan, BD Pharmingen).

SAEC [3] = assay: RW-induced ROS generation in SAEC (DHE); format: cell-based, human; conditions: SAEC preincubated with AR inhibitor, RW 150 μg/mL
Method: Dihydroethidium (DHE, Molecular Probes) staining for superoxide was carried out as described previously. Briefly, Approximately 1×10^5 cells were seeded on chambered slides and starved in serum-free SABM with or without AR inhibitor for 24 h. The cells were treated with RW for 16 h. SAEC were rinsed with cold PBS and incubated in PBS containing HEt (2.5 mmol/L) at 37° C. for 15 minutes. Cells were rinsed in PBS and mounted with Vectashield Hard Set™ mounting medium with DAPI (Vector Laboratories Inc., Burlingame, Calif.). The image of ethidium staining was measured with a Nikon epifluorescence microscope with a 585 nm long-pass filter.

[4] = system: COX-2, iNOS, Bcl-XL, Bax, cyclin D1, E2F2; assay: RW-induced inflammatory, apoptosis and cell cycle proteins in SAEC (Western blot); format: cell-based, human; conditions: RW 50 μg/ml, 24 h
Text: Fourty micrograms of cytoplasmic protein extracts, prepared as described earlier were resolved on 10% SDS-PAGE. After electrophoresis, the proteins were electro transferred to a nitrocellulose membrane, blocked with 5% nonfat milk in TBST, and probed with antibodies against COX-2, NOS2, Bcl-xL, Bax, cyclin D1, E2F2 (1:1,000 dilution) for 2 hr. The blot was then washed, exposed to HRP-conjugated secondary antibodies (1:5,000 dilution) for 1 hr, and the antigen-antibody complex was detected by enhanced chemiluminescence (Amersham Pharmacia Biotech, Piscataway, N.J., USA).

SAEC [5] = assay: TNF-α- and LPS-induced ROS generation in SAEC (DHE); format: cell-based, human; conditions: TNF-α 2 nM or LPS 1 μg/mL, 16 h
Method: Dihydroethidium (DHE, Molecular Probes) staining for superoxide was carried out as described previously. Briefly, approximately 1×10^5 cells were seeded on chambered slides and starved in serum-free basal medium with AR inhibitor or carrier for 24 h. The cells were treated with TNF-α (2 nM) or LPS (1 μg/mL) or carrier for an additional 16 h. SAEC were rinsed with cold PBS and incubated in PBS containing HEt (2.5 μmol/L) at 37° C. for 15 min. Cells were rinsed in PBS and mounted with fluorsave mounting medium containing DAPI (Vector Laboratories Inc., Burlingame, Calif.). The image of ethidium staining was measured with a Nikon epifluorescence microscope with a 585 nm long-pass filter.

NF-κB = assay: NF-κB-dependent SEAP reporter assay in TNF-α- or LPS-treated SAEC; format: cell-based, human
Method: SAEC cells (1×10^5 cells/well) were plated in 24-well plates, serum starved in basal medium with AR inhibitor, sorbinil and zopolrestate (20 μM) or carrier for 24 h, and transiently transfected with pNF-κB-secretory alkaline phosphatase (SEAP) construct or control plasmid pTALSEAP DNA (Clontech, Palo Alto, Calif.) using the LipofectAMINE Plus reagent. After 6 hours of transfection medium was replaced with fresh medium and cells were incubated with either TNF-α (2 nM) or LPS (1 μg/mL) or carrier for 48 h. The cell culture medium was then harvested and analyzed for SEAP activity, essentially as described by the manufacturer (Clontech, Palo Alto, Calif.), using a 96-well chemiluminescence plate reader.

SMILES: O=C(O)Cc1nn(Cc2nc3cc(C(F)(F)F)ccc3s2)c(=O)c2ccccc12 [zopolrestat]
- reduction of TNF-α concentration in AqH [1]: > 60%
- prevention of RW-induced cell death (SAEC [2]): > 80%
- RW-induced increase in cellular ROS levels (SAEC [3]): prevented these changes
- RW-induced increase of COX-2 and iNOS protein expression [4]: significantly prevented the increase
- prevention of RW-induced increase in expression of cyclin D1 and E2F2 [4]: > 90%
- TNF-α- and LPS-induced increase in ROS levels (SAEC [5]): prevented these changes
- inhibition at 20 µM (NF-κB; Homo sapiens, SAEC, AR inhibitor 20 μM, TNF-α 2 nM or LPS 1 μg/mL, 48 h, read-out: inhibition of TNF-α- and LPS-induced NF-κB-dependent SEAP activation): > 60%
- basal NF-κB-SEAP activity, compound alone (NF-κB; no TNF-α or LPS): did not affect
